Results from DBAASP.
Converted amounts (≈) assume the structure as drawn. Each block holds one compound with its values, some of them ahead of it.

Experiments:
Assay in all cases: ≥ marks a high value that may be exact or a test limit, other limits are often not marked, values filed in µg/mL are converted to µM
[1] = system: Escherichia coli KCTC 2223
[2] = system: Micrococcus luteus ATCC 10240
[3] = system: Staphylococcus aureus ATCC 15752
Bacillus cereus AS1.126 = system: Bacillus cereus AS1.126
[4] = system: Enterococcus faecium CGMCC 1.2334
[5] = system: Enterococcus faecalis CGMCC 1.595
[6] = system: Pseudomonas aeruginosa CGMCC 1.860
Escherichia coli AS1.349 = system: Escherichia coli AS1.349
[7] = system: Enterobacter cloacae CGMCC 1.58
[8] = system: Klebsiella pneumoniae subsp. pneumoniae CGMCC 1.176
[9] = system: Proteus mirabilis CICC 22931
[10] = system: Staphylococcus aureus AS1.72
[11] = system: Staphylococcus epidermidis CICC 23664
[12] = system: Corynebacterium glutamicum ATCC 13032
[13] = system: Staphylococcus aureus ATCC 9144
Escherichia coli HB101 = system: Escherichia coli HB101
[14] = system: Escherichia coli ATCC 25922
[15] = system: Pseudomonas aeruginosa ATCC 27853
[16] = system: Escherichia coli DH5alpha
[17] = system: Pseudomonas aeruginosa PAO1
Bacillus subtilis DELTA = system: Bacillus subtilis DELTA
Candida parapsilosis = system: Candida parapsilosis
[18] = system: Zymomonas mobilis ATCC 10988
[19] = system: Staphylococcus aureus ATCC 700699
[20] = system: Staphylococcus aureus ATCC 33591
[21] = system: Klebsiella pneumoniae ATCC 700603
[22] = system: Staphylococcus aureus ATCC 29213
[23] = system: Staphylococcus aureus 90857
[24] = system: Pseudomonas corrugata DSM 7228
[25] = system: Pseudomonas syringae pv. tomato DC3000
[26] = system: Clavibacter michiganensis subsp. michiganensis DSM 46294
[27] = system: Pseudomonas syringae pv. syringae DSM 10604
[28] = system: Pectobacterium carotovorum subsp. carotovorum DSM 30168
[29] = system: Xanthomonas vesicatoria DSM 50861
Staphylococcus aureus = system: Staphylococcus aureus
Escherichia coli W160-37 = system: Escherichia coli W160-37

SMILES: CC[C@H](C)[C@H](N)C(=O)N[C@@H](CCCCN)C(=O)N[C@@H](CCCCN)C(=O)N[C@H](C(=O)N[C@@H](Cc1c[nH]c2ccccc12)C(=O)N[C@@H](CO)C(=O)N[C@@H](CCCCN)C(=O)N[C@H](C(=O)N[C@@H](CCCCN)C(=O)N[C@@H](CCCCN)C(=O)N[C@@H](Cc1c[nH]c2ccccc12)C(=O)N[C@@H](Cc1c[nH]c2ccccc12)C(=O)N[C@@H](CCCCN)C(=O)O)[C@@H](C)CC)[C@@H](C)CC [IKKIWSKIKKWWK]
MIC (Bacillus cereus AS1.126): 6.25 µM (≈ 11.1 µg/mL)
MIC [4]: 12.5 µM (≈ 22.2 µg/mL)
MIC [5]: 5 µM (≈ 8.86 µg/mL)
MIC [6]: 4.69 µM (≈ 8.31 µg/mL)
MIC (Escherichia coli AS1.349): 2.5 µM (≈ 4.43 µg/mL)
MIC [7]: ≥ 100 µM
MIC [8]: ≥ 100 µM
MIC [9]: ≥ 100 µM
MIC [10]: 2.5 µM (≈ 4.43 µg/mL)
MIC [11]: 2.5 µM (≈ 4.43 µg/mL)

SMILES: CC[C@H](C)[C@H](NC(=O)[C@H](CCCCN)NC(=O)[C@H](CCCCN)NC(=O)[C@H](CC(C)C)NC(=O)CN)C(=O)N[C@H](C(=O)N[C@@H](CCCCN)C(=O)N[C@@H](CCCCN)C(=O)N[C@@H](CC(C)C)C(=O)N[C@@H](CC(C)C)C(N)=O)[C@@H](C)CC [GLKKIIKKLL]
MIC [16]: ≥ 173 µM
MIC [17]: 13 µM (≈ 15 µg/mL)
MIC (Bacillus subtilis DELTA): 13 µM (≈ 15 µg/mL)
MIC (Candida parapsilosis): 17.3 µM (≈ 20 µg/mL)
MIC [18]: 17.3 µM (≈ 20 µg/mL)

SMILES: CC[C@H](C)[C@H](NC(=O)[C@H](CC(=O)O)NC(=O)[C@H](CCCCN)NC(=O)[C@H](C)NC(=O)[C@H](C)NC(=O)CNC(=O)[C@H](CCCCN)NC(=O)[C@H](CC(C)C)NC(=O)[C@@H](NC(=O)[C@H](CC(=O)O)NC(=O)[C@@H](NC(=O)[C@@H](NC(=O)CN)C(C)C)C(C)C)[C@@H](C)CC)C(=O)N[C@@H](C)C(=O)NCC(=O)N[C@@H](Cc1cnc[nH]1)C(=O)N[C@@H](CC(C)C)C(=O)N[C@@H](C)C(=O)N[C@@H](CO)C(=O)N[C@@H](C)C(=O)N[C@H](C(=O)N[C@@H](CCSC)C(=O)N[C@@H](CC(N)=O)C(=O)N[C@@H](CCCCN)C(=O)N[C@@H](CC(C)C)C(N)=O)C(C)C [GVVDILKGAAKDIAGHLASAVMNKL]
MIC [19]: ≥ 100 µM
MIC [20]: ≥ 100 µM
MIC [21]: > 100 µM
MIC [22]: > 100 µM
MIC [14]: 100 µM (≈ 249 µg/mL)
MIC [15]: > 100 µM

SMILES: CC[C@H](C)[C@H](NC(=O)[C@H](CC(=O)O)NC(=O)[C@H](CCCCN)NC(=O)[C@H](C)NC(=O)[C@H](C)NC(=O)CNC(=O)[C@H](C)NC(=O)[C@H](CC(C)C)NC(=O)[C@@H](NC(=O)[C@H](CC(=O)O)NC(=O)[C@@H](NC(=O)[C@@H](NC(=O)CN)C(C)C)C(C)C)[C@@H](C)CC)C(=O)N[C@@H](C)C(=O)NCC(=O)N[C@@H](Cc1cnc[nH]1)C(=O)N[C@@H](CC(C)C)C(=O)N[C@@H](C)C(=O)N[C@@H](CO)C(=O)N[C@@H](CCCCN)C(=O)N[C@H](C(=O)N[C@@H](CCSC)C(=O)N[C@@H](CC(N)=O)C(=O)N[C@@H](CCCCN)C(=O)N[C@@H](CC(C)C)C(N)=O)C(C)C [GVVDILAGAAKDIAGHLASKVMNKL]
MIC [19]: ≥ 100 µM
MIC [20]: ≥ 100 µM
MIC [21]: > 100 µM
MIC [22]: > 100 µM
MIC [14]: > 100 µM
MIC [15]: > 100 µM

SMILES: CC[C@H](C)[C@H](NC(=O)[C@@H]1CCCN1C(=O)[C@H](CCCCN)NC(=O)[C@@H]1CCCN1C(=O)[C@H](CCCN=C(N)N)NC(=O)CNC(=O)[C@@H]1CCCN1C(=O)[C@H](Cc1ccccc1)NC(=O)[C@@H]1CCCN1C(=O)[C@H](CCCN=C(N)N)NC(=O)[C@@H]1CCCN1C(=O)[C@H](CCCN=C(N)N)NC(=O)CN)C(=O)N[C@@H](Cc1ccccc1)C(=O)N[C@@H](CCCN=C(N)N)C(=O)N1CCC[C@H]1C(=O)N[C@@H](CCCN=C(N)N)C(=O)O [GRPRPFPGRPKPIFRPR]
MIC [12]: 3.1 µM (≈ 6.3 µg/mL)
MIC [13]: ≥ 100 µM
MIC (Escherichia coli HB101): 25 µM (≈ 50.8 µg/mL)
MIC [14]: 70.7 µM (≈ 144 µg/mL)
MIC [15]: 70.7 µM (≈ 144 µg/mL)

More lines, now with the values ahead:

MIC [1]: ≥ 32 µM
MIC [2]: ≥ 32 µM
MIC [3]: ≥ 32 µM
SMILES: CC[C@H](C)[C@H](NC(=O)[C@H](CCCCN)NC(=O)[C@@H](NC(=O)[C@@H](N)CC(N)=O)[C@@H](C)CC)C(=O)N[C@@H](CO)C(=O)NCC(=O)N[C@@H](CCCCN)C(=O)N[C@@H](Cc1c[nH]c2ccccc12)C(=O)N[C@@H](CCCCN)C(=O)N[C@@H](C)C(=O)N[C@@H](CCC(N)=O)C(=O)N[C@@H](CCCCN)C(=O)N[C@@H](CCCN=C(N)N)C(=O)N[C@@H](Cc1ccccc1)C(=O)N[C@@H](CC(C)C)C(=O)N[C@@H](CCCCN)C(=O)O [NIKISGKWKAQKRFLK]

MIC [12]: 12.5 µM (≈ 22.7 µg/mL)
MIC [13]: ≥ 100 µM
MIC (Escherichia coli HB101): ≥ 100 µM
MIC [14]: > 100 µM
MIC [15]: > 100 µM
SMILES: CC[C@H](C)[C@H](NC(=O)[C@@H]1CCCN1C(=O)[C@H](CCCCN)NC(=O)[C@@H]1CCCN1C(=O)[C@H](CCCN=C(N)N)NC(=O)CNC(=O)[C@@H]1CCCN1C(=O)[C@H](Cc1ccccc1)NC(=O)[C@@H]1CCCN1C(=O)[C@H](CCCN=C(N)N)NC(=O)[C@@H]1CCCN1)C(=O)N[C@@H](Cc1ccccc1)C(=O)N[C@@H](CCCN=C(N)N)C(=O)N1CCC[C@H]1C(=O)N[C@@H](CCCN=C(N)N)C(=O)O [PRPFPGRPKPIFRPR]

MIC [23]: 0.625 µM (≈ 0.945 µg/mL)
MIC [24]: 1.65 µM (≈ 2.5 µg/mL)
MIC [25]: 0.661 µM (≈ 0.999 µg/mL)
MIC [26]: 0.165 µM (≈ 0.25 µg/mL)
MIC [27]: 0.165 µM (≈ 0.25 µg/mL)
MIC [28]: 1.65 µM (≈ 2.5 µg/mL)
MIC [29]: 0.0661 µM (≈ 0.0999 µg/mL)
SMILES: CC[C@H](C)[C@H](NC(=O)[C@H](CC(C)C)NC(=O)[C@H](CCCCN)NC(=O)[C@H](CCCCN)NC(=O)[C@H](CC(C)C)NC(=O)[C@@H](NC(=O)[C@H](CCCCN)NC(=O)[C@H](CCCCN)NC(=O)[C@@H](NC(=O)[C@H](Cc1ccccc1)NC(=O)[C@H](CCCN=C(N)N)NC(=O)[C@@H](N)CC(C)C)[C@@H](C)CC)[C@@H](C)CC)C(N)=O [LRFIKKILKKLI]

MIC (Staphylococcus aureus): 154 µM (≈ 203 µg/mL)
MIC (Escherichia coli W160-37): ≥ 154 µM
SMILES: CC[C@H](C)[C@H](NC(=O)[C@H](Cc1c[nH]c2ccccc12)NC(=O)[C@H](CCCCN)NC(=O)[C@H](CO)NC(=O)[C@H](CC(C)C)NC(=O)[C@H](Cc1ccccc1)NC(=O)[C@H](CCCCN)NC(=O)[C@H](CC(C)C)NC(=O)[C@H](CCCCN)NC(=O)[C@@H]1CCCN1)C(=O)NCC(=O)O [PKLKFLSKWIG]

MIC [23]: ≥ 62.5 µM
MIC [24]: 6.69 µM (≈ 9.99 µg/mL)
MIC [25]: 0.669 µM (≈ 0.999 µg/mL)
MIC [26]: 6.69 µM (≈ 9.99 µg/mL)
MIC [27]: 3.34 µM (≈ 5 µg/mL)
MIC [28]: 6.69 µM (≈ 9.99 µg/mL)
MIC [29]: 6.69 µM (≈ 9.99 µg/mL)
SMILES: CC(C)C[C@H](NC(=O)[C@H](CCCCN)NC(=O)[C@H](CCCCN)NC(=O)[C@H](CCCCN)NC(=O)[C@@H](N)CCCN=C(N)N)C(=O)N[C@@H](CCCCN)C(=O)N[C@H](C(=O)N[C@H](C(=O)N[C@@H](CCCCN)C(=O)N[C@@H](CCCN=C(N)N)C(=O)N[C@@H](CC(C)C)C(=O)N[C@H](C(N)=O)C(C)C)C(C)C)C(C)C [RKKKLKVVKRLV]
